Earlier results on one compound are cited in patent US20040224039A1, “Compositions and methods for the treatment of diseases and disorder associated with oxidative damage” (priority 2003, published 2004).

The conditions of the series: following the administration of 500 mg aspirin.

In the case of `CC(=O)Oc1ccccc1C(=O)O` [aspirin, acetylsalicylic acid], the plasma level was 130 µM.
